The numbers were not newly measured in patent EP1323421A1 (priority 2001, dated 2003), which cites them from elsewhere.

Where two headings read alike, the source gives them in different places.

One data set concerns plasma proteins. The settings on record: mainly to alpha and beta globulins.
Assay in data set [1]: not given
The source holds these as a separate data set.

The conditions of data set [2]: in vivo.
Assay in data set [3]: not given
This is another data set of the same source.

Setting [4] is: intravenous single dose of about 0.3 mg.

On to `CO[C@]12CC[C@@]3(C[C@@H]1[C@](C)(O)C(C)(C)C)[C@H]1Cc4ccc(O)c5c4[C@@]3(CCN1CC1CC1)[C@H]2O5` [buprenorphine, 21-cyclopropyl-7.varies.-[(S)-1-hydroxy-1,2,2-trimethylpropyl]-6,14-endo-e thano-6,7,8,14-tetrahydrooripavine], for which the Tmax is 210.+-.40 minutes (0.4 mg sublingual dose) and 192.+-.49 minutes (0.8 mg sublingual dose). The systemic availability reads like this: (0.4 mg sublingual dose) 57.7%; (0.8 mg sublingual dose) 54.1%. Besides, the Total plasma clearance entry (conscious postoperative patients) is listed as “approximately 1.28 I/minute”. Moreover, the hepatic extraction ratio result (in vivo) is listed as “approximately 1”. For the same compound, the Oral bioavailability (in vivo, po) was roughly 15%. For the same compound, the “mean peak plasma buprenorphine concentrations” value (intramuscular second 0.3-mg dose 3 hours after the initial intravenous dose) was “about 3.6 ng/ml”. Moreover, the plasma concentrations entry was “about 0.4 ng/ml” (intramuscular second 0.3-mg dose, after about 3 hours); “about 9 ng/ml” (intravenous about 0.3 mg, after about 5 minutes); “about 0.4 ng/ml” (intravenous about 0.3 mg, after about 3 hours). Under setting [4], the “mean peak plasma drug concentrations” value is reported as “about 18 ng/ml”. Besides, the “time of mean peak plasma drug concentrations” value under setting [4] was no more than 2 min. Further, the “bound to plasma proteins” value in the data set with plasma proteins is recorded as “approximately 96%”. In addition, the “time to highest concentrations in the liver” value was no more than 40 min in data set [1] (intramuscular administration in rats) and no more than 10 min in data set [1] (oral administration in rats). For the same compound, the “analgesic potency relative to meperidine” value in data set [2] is listed as “about 600 times”. Moreover, the “analgesic potency relative to pentazocine” value in data set [2] is listed as “about 200 times”. Also, in data set [2], the “mean duration of analgesia” value is reported as “six”. Also, in data set [3] (epidural application, 4 µg/kg (Batra) or 2 µg/kg (Drenger [with dogs])), the “influence on the function of bladder or urethra” value is “does not have a significant influence”. Moreover, the “cases showing urinary retention” value in data set [3] (i.v. application of 0.3 mg, patients of approx. 70 kg (4.3 µg/kg), Malinovsky) was 5 out of 10. Besides, the urinary retention result in data set [3] (sublingual application of 400µg (~ 5.7 µg/kg), case shown by Murray) was “urinary retention was seen”.
